Reference: patent US9447408B2, “Method of efficiently establishing induced pluripotent stem cells” (Kyoto University, priority 2010, dated 2016)

Tested on: Human dermal fibroblasts (HDF 1616 line)
Assay: Human iPS cell colony formation, 4 genes introduced, SB202190 added Day 0 or day 5
Format: cell-based
Experimental: Human dermal fibroblasts (HDF 1616 line) were treated using a lentivirus (pLenti6/UbC-Slc7a1) according to the method described by Takahashi, K. et al. in Cell, 131: 861-872 (2007), to express the mouse ecotropic virus receptor Slc7a1 gene. These cells were seeded to a 6-well culture plate (Falcon), previously coated with 0.1% gelatin (Sigma), at 1.0×10^5 cells per well. The following day, the four human genes were introduced using a retrovirus according to the method described by Takahashi, K. et al. in Cell, 131: 861-872 (2007). On day 4 after the infection, 2.0×10^5 cells were seeded to a 100 mm dish, containing previously seeded feeder cells. To determine the effect of a p38 inhibitor, SB202190 was added simultaneously with the infection (Day 0), or on day 5 after the infection, and the efficiency of iPS cell establishment was compared. On day 16 after the infection, iPS cell colonies were counted. The results are shown in the upper panel in FIG. 3. In the context of introduction of the four genes (Oct3/4, Sox2, Klf4, C-Myc), the number of human iPS cell colonies increased with the addition of SB202190 in the initial stage after the infection, compared with the addition of DMSO for control and the addition of SB202190 on day 5 after the infection. The four genes were introduced using a retrovirus in the same manner, but at a different cell density (3×10^4 cells/10 cm dish), with simultaneous addition of SB202190 (Day 0). SB202190 was added also on day 5 after the infection, and the efficiency of iPS cell establishment was compared. On day 16 after the infection, colony sizes were measured. The results are shown in the lower panel in FIG. 3. Even when the cell density was changed, the number of iPS cell colonies increased with the addition of SB202190 along with the four factors (Oct3/4, Sox2, Klf4, C-Myc), compared with the addition of DMSO.

SMILES: Oc1ccc(-c2nc(-c3ccc(F)cc3)c(-c3ccncc3)[nH]2)cc1 [SB202190, 4-(4-fluorophenyl)-2-(4-hydroxyphenyl)-5-(4-pyridyl)imidazole]
- number of human iPS cell colonies on day 16 after the infection (2.0×10^5 cells/100 mm dish, added in the initial stage (Day 0), compared with DMSO and addition on day 5): increased
- number of iPS cell colonies on day 16 compared with DMSO (3×10^4 cells/10 cm dish): increased
- efficiency of iPS cell establishment, added on day 5 versus simultaneously with the infection (lower cell density 3×10^4 cells/10 cm dish): higher
